Laboratory results reported in ChEMBL document CHEMBL5614409, “Discovery of potent HIV-1 NNRTIs by CuAAC click-chemistry-based miniaturized synthesis, rapid screening and structure optimization” (Eur J Med Chem, 2024).

biological target: Human immunodeficiency virus type 1 reverse transcriptase (Human immunodeficiency virus 1) (UniProt Q72547); experiment: Inhibition of HIV-1 reverse transcriptase incubated for 2 hrs in presence of template and viral nucleotides by ELISA relative to control; design: concentration or dose not given beside the values; conditions: concentration not given here

Which inhibition does the source give for `Cc1cc(C#N)cc(C)c1Oc1ccnc(NC2CCN(Cc3cn(Cc4ccccc4C#N)nn3)CC2)n1` here?
The inhibition was 91.3%.

Which inhibition does the source give for `Cc1cc(C#N)cc(C)c1Oc1nc(Nc2ccc(C#N)cc2)nc(N)c1Br` [ETRAVIRINE] here?
The inhibition was 52.3%.

test system: Human immunodeficiency virus 1; experiment: Antiviral activity against HIV1 IIIB infected in MT4 cells assessed as reduction in virus induced cytopathic effect incubated for 5 days by MTT method; format: functional, organism-based; conditions: Human immunodeficiency virus 1, IIIB, MT4, 120 h

For `CCNC(=O)Cn1cc(CN2CCC(Nc3nc4c(c(Oc5c(C)cc(/C=C/C#N)cc5C)n3)COC4)CC2)nn1`, which EC50 is on record?
Its EC50 is 0.004 µM.

With `CNC(=O)Cn1cc(CN2CCC(Nc3nc(Oc4c(C)cc(/C=C/C#N)cc4C)c4sccc4n3)CC2)nn1` as the compound, how does the EC50 read?
The EC50 was 0.004 µM.

With `Cc1cc(C#N)cc(C)c1Oc1ccnc(NC2CCN(Cc3cn(Cc4ccccc4C#N)nn3)CC2)n1` as the compound, how does the EC50 read?
The EC50 was 0.002 µM.

test system: not listed separately; experiment: Cytotoxicity against human MT4 cells assessed as reduction in cell viability incubated for 5 days by MTT method; format: toxicity, cell-based; conditions: time 5 day

Which CC50 at 120 h does the source give for `CCNC(=O)Cn1cc(CN2CCC(Nc3nc4c(c(Oc5c(C)cc(/C=C/C#N)cc5C)n3)COC4)CC2)nn1` here?
The CC50 at 120 h was 120 µM.

Which CC50 at 120 h does the source give for `CNC(=O)Cn1cc(CN2CCC(Nc3nc(Oc4c(C)cc(/C=C/C#N)cc4C)c4sccc4n3)CC2)nn1` here?
Its CC50 at 120 h is 18.4 µM.

With `Cc1cc(C#N)cc(C)c1Oc1ccnc(NC2CCN(Cc3cn(Cc4ccccc4C#N)nn3)CC2)n1` as the compound, how does the CC50 at 120 h read?
The CC50 at 120 h was 4.24 µM.

Which CC50 at 120 h does the source give for `Cc1cc(C#N)cc(C)c1Oc1nc(Nc2ccc(C#N)cc2)nc(N)c1Br` [ETRAVIRINE] here?
Its CC50 at 120 h is > 4.59 µM.

test system: not listed separately; experiment: Selectivity index, ratio of CC50 for human MT4 cells to EC50 for antiviral activity against HIV1 IIIB infected in MT4 cells; format: toxicity, cell-based; conditions: read-out: Ratio CC50/EC50

With `CCNC(=O)Cn1cc(CN2CCC(Nc3nc4c(c(Oc5c(C)cc(/C=C/C#N)cc5C)n3)COC4)CC2)nn1` as the compound, how does the selectivity ratio read?
Its selectivity ratio is 33200.

With `CNC(=O)Cn1cc(CN2CCC(Nc3nc(Oc4c(C)cc(/C=C/C#N)cc4C)c4sccc4n3)CC2)nn1` as the compound, how does the selectivity ratio read?
Its selectivity ratio is 4720.

With `Cc1cc(C#N)cc(C)c1Oc1ccnc(NC2CCN(Cc3cn(Cc4ccccc4C#N)nn3)CC2)n1` as the compound, how does the selectivity ratio read?
Its selectivity ratio is 2020.

Which selectivity ratio does the source give for `Cc1cc(C#N)cc(C)c1Oc1nc(Nc2ccc(C#N)cc2)nc(N)c1Br` [ETRAVIRINE] here?
The selectivity ratio was > 1090.

test system: Human immunodeficiency virus 1; experiment: Antiviral activity against HIV1 IIIB harboring L100I mutant infected in MT4 cells assessed as reduction in virus induced cytopathic effect incubated for 5 days by MTT method; format: functional, organism-based; conditions: Human immunodeficiency virus 1, IIIB, MT4, 120 h

Which EC50 does the source give for `CCNC(=O)Cn1cc(CN2CCC(Nc3nc4c(c(Oc5c(C)cc(/C=C/C#N)cc5C)n3)COC4)CC2)nn1` here?
Its EC50 is 0.013 µM.

Which EC50 does the source give for `CNC(=O)Cn1cc(CN2CCC(Nc3nc(Oc4c(C)cc(/C=C/C#N)cc4C)c4sccc4n3)CC2)nn1` here?
Its EC50 is 0.006 µM.

Which EC50 does the source give for `Cc1cc(C#N)cc(C)c1Oc1ccnc(NC2CCN(Cc3cn(Cc4ccccc4C#N)nn3)CC2)n1` here?
Its EC50 is 0.231 µM.

Which EC50 does the source give for `Cc1cc(C#N)cc(C)c1Oc1nc(Nc2ccc(C#N)cc2)nc(N)c1Br` [ETRAVIRINE] here?
The EC50 was 0.007 µM.

test system: Human immunodeficiency virus 1; experiment: Antiviral activity against HIV1 IIIB harboring K103 N mutant infected in MT4 cells assessed as reduction in virus induced cytopathic effect incubated for 5 days by MTT method; format: functional, organism-based; conditions: Human immunodeficiency virus 1, IIIB, MT4, 120 h

With `CCNC(=O)Cn1cc(CN2CCC(Nc3nc4c(c(Oc5c(C)cc(/C=C/C#N)cc5C)n3)COC4)CC2)nn1` as the compound, how does the EC50 read?
Its EC50 is 0.006 µM.

With `CNC(=O)Cn1cc(CN2CCC(Nc3nc(Oc4c(C)cc(/C=C/C#N)cc4C)c4sccc4n3)CC2)nn1` as the compound, how does the EC50 read?
The EC50 was 0.005 µM.

For `Cc1cc(C#N)cc(C)c1Oc1ccnc(NC2CCN(Cc3cn(Cc4ccccc4C#N)nn3)CC2)n1`, which EC50 is on record?
Its EC50 is 0.015 µM.

With `Cc1cc(C#N)cc(C)c1Oc1nc(Nc2ccc(C#N)cc2)nc(N)c1Br` [ETRAVIRINE] as the compound, how does the EC50 read?
The EC50 was 0.003 µM.

test system: Human immunodeficiency virus 1; experiment: Antiviral activity against HIV1 IIIB harboring Y181C mutant infected in MT4 cells assessed as reduction in virus induced cytopathic effect incubated for 5 days by MTT method; format: functional, organism-based; conditions: Human immunodeficiency virus 1, IIIB, MT4, 120 h

With `CCNC(=O)Cn1cc(CN2CCC(Nc3nc4c(c(Oc5c(C)cc(/C=C/C#N)cc5C)n3)COC4)CC2)nn1` as the compound, how does the EC50 read?
The EC50 was 0.02 µM.

With `CNC(=O)Cn1cc(CN2CCC(Nc3nc(Oc4c(C)cc(/C=C/C#N)cc4C)c4sccc4n3)CC2)nn1` as the compound, how does the EC50 read?
The EC50 was 0.016 µM.

For `Cc1cc(C#N)cc(C)c1Oc1ccnc(NC2CCN(Cc3cn(Cc4ccccc4C#N)nn3)CC2)n1`, which EC50 is on record?
Its EC50 is 0.027 µM.

Which EC50 does the source give for `Cc1cc(C#N)cc(C)c1Oc1nc(Nc2ccc(C#N)cc2)nc(N)c1Br` [ETRAVIRINE] here?
The EC50 was 0.012 µM.

test system: Human immunodeficiency virus 1; experiment: Antiviral activity against HIV1 IIIB harboring Y188L mutant infected in MT4 cells assessed as reduction in virus induced cytopathic effect incubated for 5 days by MTT method; format: functional, organism-based; conditions: Human immunodeficiency virus 1, IIIB, MT4, 120 h

For `CCNC(=O)Cn1cc(CN2CCC(Nc3nc4c(c(Oc5c(C)cc(/C=C/C#N)cc5C)n3)COC4)CC2)nn1`, which EC50 is on record?
Its EC50 is 0.175 µM.

Which EC50 does the source give for `CNC(=O)Cn1cc(CN2CCC(Nc3nc(Oc4c(C)cc(/C=C/C#N)cc4C)c4sccc4n3)CC2)nn1` here?
The EC50 was 0.044 µM.

Which EC50 does the source give for `Cc1cc(C#N)cc(C)c1Oc1ccnc(NC2CCN(Cc3cn(Cc4ccccc4C#N)nn3)CC2)n1` here?
The EC50 was 0.366 µM.

test system: Human immunodeficiency virus 1; experiment: Antiviral activity against HIV1 IIIB harboring E138K mutant infected in MT4 cells assessed as reduction in virus induced cytopathic effect incubated for 5 days by MTT method; format: functional, organism-based; conditions: Human immunodeficiency virus 1, IIIB, MT4, 120 h

Which EC50 does the source give for `CCNC(=O)Cn1cc(CN2CCC(Nc3nc4c(c(Oc5c(C)cc(/C=C/C#N)cc5C)n3)COC4)CC2)nn1` here?
Its EC50 is 0.022 µM.

With `CNC(=O)Cn1cc(CN2CCC(Nc3nc(Oc4c(C)cc(/C=C/C#N)cc4C)c4sccc4n3)CC2)nn1` as the compound, how does the EC50 read?
The EC50 was 0.014 µM.

Which EC50 does the source give for `Cc1cc(C#N)cc(C)c1Oc1ccnc(NC2CCN(Cc3cn(Cc4ccccc4C#N)nn3)CC2)n1` here?
The EC50 was 0.027 µM.

Which EC50 does the source give for `Cc1cc(C#N)cc(C)c1Oc1nc(Nc2ccc(C#N)cc2)nc(N)c1Br` [ETRAVIRINE] here?
Its EC50 is 0.004 µM.

test system: Human immunodeficiency virus 1; experiment: Antiviral activity against HIV1 IIIB harboring F227L/V106A double mutant infected in MT4 cells assessed as reduction in virus induced cytopathic effect incubated for 5 days by MTT method; format: functional, organism-based; conditions: Human immunodeficiency virus 1, IIIB, MT4, 120 h

Which EC50 does the source give for `CCNC(=O)Cn1cc(CN2CCC(Nc3nc4c(c(Oc5c(C)cc(/C=C/C#N)cc5C)n3)COC4)CC2)nn1` here?
The EC50 was 0.259 µM.

Which EC50 does the source give for `CNC(=O)Cn1cc(CN2CCC(Nc3nc(Oc4c(C)cc(/C=C/C#N)cc4C)c4sccc4n3)CC2)nn1` here?
The EC50 was 0.066 µM.

With `Cc1cc(C#N)cc(C)c1Oc1ccnc(NC2CCN(Cc3cn(Cc4ccccc4C#N)nn3)CC2)n1` as the compound, how does the EC50 read?
Its EC50 is 1.04 µM.

test system: Human immunodeficiency virus 1; experiment: Antiviral activity against HIV1 IIIB harboring RES056 mutant infected in MT4 cells assessed as reduction in virus induced cytopathic effect incubated for 5 days by MTT method; format: functional, organism-based; conditions: Human immunodeficiency virus 1, IIIB, MT4, 120 h

With `CCNC(=O)Cn1cc(CN2CCC(Nc3nc4c(c(Oc5c(C)cc(/C=C/C#N)cc5C)n3)COC4)CC2)nn1` as the compound, how does the EC50 read?
Its EC50 is 0.512 µM.

For `CNC(=O)Cn1cc(CN2CCC(Nc3nc(Oc4c(C)cc(/C=C/C#N)cc4C)c4sccc4n3)CC2)nn1`, which EC50 is on record?
The EC50 was 0.099 µM.

Which EC50 does the source give for `Cc1cc(C#N)cc(C)c1Oc1ccnc(NC2CCN(Cc3cn(Cc4ccccc4C#N)nn3)CC2)n1` here?
Its EC50 is > 4.24 µM.

Which EC50 does the source give for `Cc1cc(C#N)cc(C)c1Oc1nc(Nc2ccc(C#N)cc2)nc(N)c1Br` [ETRAVIRINE] here?
The EC50 was 0.038 µM.
